Laboratory results reported in the kinase profiling compilation of Christmann-Franck et al. (2016).

Tests used:
Test in all cases: radiometric filter-binding kinase assay
[1] = molecular target: MAPKAPK2 (human) (UniProt P49137)
[2] = molecular target: PIM3 (human) (UniProt Q86V86)
[3] = molecular target: CSNK2A1 (human) (UniProt P68400)
[4] = molecular target: MAP2K1 (human) (UniProt Q02750)
[5] = molecular target: GCK (human) (UniProt Q12851)
[6] = molecular target: MKNK2 (human) (UniProt Q9HBH9)
MKNK2 (human), sequence (Q9HBH9 whole entry, looked up): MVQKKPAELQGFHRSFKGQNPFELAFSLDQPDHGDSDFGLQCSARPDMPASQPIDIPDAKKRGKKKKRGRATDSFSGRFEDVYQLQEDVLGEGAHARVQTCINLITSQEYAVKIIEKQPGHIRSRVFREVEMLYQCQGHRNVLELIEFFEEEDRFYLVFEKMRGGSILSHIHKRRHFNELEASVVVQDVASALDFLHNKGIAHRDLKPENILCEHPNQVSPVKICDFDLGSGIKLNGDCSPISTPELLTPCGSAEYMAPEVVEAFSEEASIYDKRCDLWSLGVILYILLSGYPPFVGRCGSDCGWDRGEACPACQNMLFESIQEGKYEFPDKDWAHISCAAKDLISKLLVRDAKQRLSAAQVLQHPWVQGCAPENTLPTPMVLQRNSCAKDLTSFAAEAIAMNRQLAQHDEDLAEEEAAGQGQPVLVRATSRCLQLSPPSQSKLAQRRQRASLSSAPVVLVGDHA

[7] = molecular target: RPS6KA5 KD1 KD2 (human) (UniProt O75582)
[8] = molecular target: NEK6 (human) (UniProt Q9HC98)
[9] = molecular target: MAPK9 (human) (UniProt P45984)
[10] = molecular target: EPHA4 (human) (UniProt P54764)
[11] = molecular target: DAPK1 (human) (UniProt P53355)
DAPK1 (human), sequence (P53355 whole entry, looked up): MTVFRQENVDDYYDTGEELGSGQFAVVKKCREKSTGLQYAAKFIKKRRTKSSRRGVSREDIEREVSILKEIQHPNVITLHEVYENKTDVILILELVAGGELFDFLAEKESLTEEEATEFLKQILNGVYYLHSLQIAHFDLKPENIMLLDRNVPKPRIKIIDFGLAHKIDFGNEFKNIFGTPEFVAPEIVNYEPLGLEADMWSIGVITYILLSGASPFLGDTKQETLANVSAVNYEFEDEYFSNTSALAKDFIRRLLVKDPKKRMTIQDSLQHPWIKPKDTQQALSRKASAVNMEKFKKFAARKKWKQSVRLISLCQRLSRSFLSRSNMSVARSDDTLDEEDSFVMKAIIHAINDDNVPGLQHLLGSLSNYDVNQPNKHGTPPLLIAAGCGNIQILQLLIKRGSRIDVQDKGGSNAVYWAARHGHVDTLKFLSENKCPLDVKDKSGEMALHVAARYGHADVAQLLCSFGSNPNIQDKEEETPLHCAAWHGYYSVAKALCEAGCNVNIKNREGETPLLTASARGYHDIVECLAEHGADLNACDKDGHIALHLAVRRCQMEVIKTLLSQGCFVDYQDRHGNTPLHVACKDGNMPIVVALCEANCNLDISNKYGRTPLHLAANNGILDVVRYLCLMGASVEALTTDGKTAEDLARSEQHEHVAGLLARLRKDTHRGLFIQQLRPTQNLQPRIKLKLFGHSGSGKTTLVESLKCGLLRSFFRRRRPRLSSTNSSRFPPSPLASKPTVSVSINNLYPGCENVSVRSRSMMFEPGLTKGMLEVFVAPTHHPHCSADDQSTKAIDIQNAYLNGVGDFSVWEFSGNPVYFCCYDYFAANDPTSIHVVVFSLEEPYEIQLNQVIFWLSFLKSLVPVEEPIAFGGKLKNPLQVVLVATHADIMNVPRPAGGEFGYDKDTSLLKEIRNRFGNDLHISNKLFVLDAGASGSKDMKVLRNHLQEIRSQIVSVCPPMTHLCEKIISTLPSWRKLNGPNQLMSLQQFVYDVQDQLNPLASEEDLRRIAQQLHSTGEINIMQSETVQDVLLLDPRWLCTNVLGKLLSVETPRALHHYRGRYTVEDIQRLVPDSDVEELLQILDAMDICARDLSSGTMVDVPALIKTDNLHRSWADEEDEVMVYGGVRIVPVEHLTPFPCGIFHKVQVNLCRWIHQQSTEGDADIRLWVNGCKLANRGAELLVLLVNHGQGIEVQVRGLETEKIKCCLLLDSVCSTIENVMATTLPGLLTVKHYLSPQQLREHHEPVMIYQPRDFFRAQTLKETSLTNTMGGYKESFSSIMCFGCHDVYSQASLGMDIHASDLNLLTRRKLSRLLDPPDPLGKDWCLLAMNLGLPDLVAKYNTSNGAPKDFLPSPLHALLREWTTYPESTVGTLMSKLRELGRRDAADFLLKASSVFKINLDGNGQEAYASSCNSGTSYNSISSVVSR

[12] = molecular target: MARK3 (human) (UniProt P27448)
[13] = molecular target: STK3 (human) (UniProt Q13188)
[14] = molecular target: MARK4 (human) (UniProt Q96L34)
MARK4 (human), sequence (Q96L34 whole entry, looked up): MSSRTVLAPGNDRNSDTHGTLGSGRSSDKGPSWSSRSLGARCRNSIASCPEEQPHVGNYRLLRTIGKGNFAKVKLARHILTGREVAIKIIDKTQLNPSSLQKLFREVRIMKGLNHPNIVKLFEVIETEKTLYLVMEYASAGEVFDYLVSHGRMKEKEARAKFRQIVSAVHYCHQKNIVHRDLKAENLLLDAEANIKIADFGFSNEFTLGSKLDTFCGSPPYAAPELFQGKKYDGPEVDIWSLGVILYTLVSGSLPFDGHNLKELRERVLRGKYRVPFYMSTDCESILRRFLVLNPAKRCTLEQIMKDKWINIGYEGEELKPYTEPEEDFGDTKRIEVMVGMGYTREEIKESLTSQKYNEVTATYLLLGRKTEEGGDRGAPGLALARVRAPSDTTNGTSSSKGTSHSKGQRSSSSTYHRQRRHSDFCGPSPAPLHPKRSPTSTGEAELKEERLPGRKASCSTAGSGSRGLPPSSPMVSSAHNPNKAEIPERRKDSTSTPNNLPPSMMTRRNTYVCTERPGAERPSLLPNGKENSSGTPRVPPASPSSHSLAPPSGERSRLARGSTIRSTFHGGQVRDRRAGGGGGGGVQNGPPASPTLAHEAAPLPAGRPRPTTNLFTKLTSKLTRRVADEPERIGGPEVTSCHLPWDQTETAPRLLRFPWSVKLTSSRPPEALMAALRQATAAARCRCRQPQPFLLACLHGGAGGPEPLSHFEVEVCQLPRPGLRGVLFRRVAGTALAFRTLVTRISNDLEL

[15] = molecular target: TBK1 (human) (UniProt Q9UHD2)
[16] = molecular target: CHEK1 (human) (UniProt O14757)
[17] = molecular target: EPHB4 (human) (UniProt P54760)
[18] = molecular target: PIM2 (human) (UniProt Q9P1W9)
[19] = molecular target: PKN2 (human) (UniProt Q16513)
[20] = molecular target: BTK (human) (UniProt Q06187)
[21] = molecular target: INSRR (human) (UniProt P14616); details: compound 1.0 µM
[22] = molecular target: PAK6 (human) (UniProt Q9NQU5); details: compound 10.0 µM
[23] = molecular target: EPHB1 (human) (UniProt P54762)
[24] = molecular target: YES1 (human) (UniProt P07947)
[25] = molecular target: TTK (human) (UniProt P33981)
TTK (human), sequence (P33981 whole entry, looked up): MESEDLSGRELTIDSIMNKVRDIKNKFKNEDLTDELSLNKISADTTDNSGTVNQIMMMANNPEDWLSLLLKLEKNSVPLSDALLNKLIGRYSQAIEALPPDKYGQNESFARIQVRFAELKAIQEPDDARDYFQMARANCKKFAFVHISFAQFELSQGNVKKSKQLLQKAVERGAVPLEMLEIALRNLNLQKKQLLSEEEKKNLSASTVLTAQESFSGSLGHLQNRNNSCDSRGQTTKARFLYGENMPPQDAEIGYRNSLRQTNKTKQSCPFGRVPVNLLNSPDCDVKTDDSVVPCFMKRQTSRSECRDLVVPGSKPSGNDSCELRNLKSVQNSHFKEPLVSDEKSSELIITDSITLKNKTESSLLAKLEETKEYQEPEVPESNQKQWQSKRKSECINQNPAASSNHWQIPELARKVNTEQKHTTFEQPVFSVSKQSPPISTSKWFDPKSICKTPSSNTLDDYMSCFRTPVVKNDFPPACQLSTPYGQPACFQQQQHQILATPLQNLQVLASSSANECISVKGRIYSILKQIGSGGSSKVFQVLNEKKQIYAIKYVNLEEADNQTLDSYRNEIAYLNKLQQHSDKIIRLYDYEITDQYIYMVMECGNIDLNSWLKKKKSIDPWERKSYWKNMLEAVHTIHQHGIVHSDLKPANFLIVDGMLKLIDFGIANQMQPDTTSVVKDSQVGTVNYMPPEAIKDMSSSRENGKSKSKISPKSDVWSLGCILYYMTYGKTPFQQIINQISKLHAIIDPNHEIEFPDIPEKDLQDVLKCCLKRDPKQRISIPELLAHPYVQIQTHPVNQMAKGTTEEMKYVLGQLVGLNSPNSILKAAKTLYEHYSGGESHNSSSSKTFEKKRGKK

[26] = system: RPS6KB1 (human), P23443 [T412E]
[27] = molecular target: IKBKB (human) (UniProt O14920)
[28] = molecular target: MYLK (human) (UniProt Q15746); details: compound 10.0 µM
[29] = molecular target: PIM1 (human) (UniProt P11309)
[30] = molecular target: SRPK1 (human) (UniProt Q96SB4)
SRPK1 (human), sequence (Q96SB4 whole entry, looked up): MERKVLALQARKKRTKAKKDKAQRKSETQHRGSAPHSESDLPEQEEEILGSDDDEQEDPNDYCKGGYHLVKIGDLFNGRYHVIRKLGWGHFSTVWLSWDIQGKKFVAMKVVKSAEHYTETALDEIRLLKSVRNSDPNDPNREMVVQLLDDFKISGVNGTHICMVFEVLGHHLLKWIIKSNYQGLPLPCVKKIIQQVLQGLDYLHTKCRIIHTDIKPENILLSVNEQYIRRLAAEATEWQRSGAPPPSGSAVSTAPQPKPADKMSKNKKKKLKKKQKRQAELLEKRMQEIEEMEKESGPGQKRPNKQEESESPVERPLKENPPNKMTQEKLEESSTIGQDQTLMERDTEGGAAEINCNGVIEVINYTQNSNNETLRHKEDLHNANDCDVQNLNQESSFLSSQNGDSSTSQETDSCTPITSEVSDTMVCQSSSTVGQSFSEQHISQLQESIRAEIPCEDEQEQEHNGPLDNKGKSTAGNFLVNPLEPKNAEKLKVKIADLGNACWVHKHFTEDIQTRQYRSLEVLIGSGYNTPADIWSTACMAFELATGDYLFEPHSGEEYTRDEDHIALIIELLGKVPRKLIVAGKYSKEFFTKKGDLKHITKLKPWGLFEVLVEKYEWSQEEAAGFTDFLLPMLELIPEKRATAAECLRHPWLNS

[31] = molecular target: MAP3K5 (human) (UniProt Q99683)
[32] = molecular target: CDK2 CCNA2 (human) (UniProt P20248+P24941)
[33] = molecular target: EEF2K (human) (UniProt O00418)
EEF2K (human), sequence (O00418 whole entry, looked up): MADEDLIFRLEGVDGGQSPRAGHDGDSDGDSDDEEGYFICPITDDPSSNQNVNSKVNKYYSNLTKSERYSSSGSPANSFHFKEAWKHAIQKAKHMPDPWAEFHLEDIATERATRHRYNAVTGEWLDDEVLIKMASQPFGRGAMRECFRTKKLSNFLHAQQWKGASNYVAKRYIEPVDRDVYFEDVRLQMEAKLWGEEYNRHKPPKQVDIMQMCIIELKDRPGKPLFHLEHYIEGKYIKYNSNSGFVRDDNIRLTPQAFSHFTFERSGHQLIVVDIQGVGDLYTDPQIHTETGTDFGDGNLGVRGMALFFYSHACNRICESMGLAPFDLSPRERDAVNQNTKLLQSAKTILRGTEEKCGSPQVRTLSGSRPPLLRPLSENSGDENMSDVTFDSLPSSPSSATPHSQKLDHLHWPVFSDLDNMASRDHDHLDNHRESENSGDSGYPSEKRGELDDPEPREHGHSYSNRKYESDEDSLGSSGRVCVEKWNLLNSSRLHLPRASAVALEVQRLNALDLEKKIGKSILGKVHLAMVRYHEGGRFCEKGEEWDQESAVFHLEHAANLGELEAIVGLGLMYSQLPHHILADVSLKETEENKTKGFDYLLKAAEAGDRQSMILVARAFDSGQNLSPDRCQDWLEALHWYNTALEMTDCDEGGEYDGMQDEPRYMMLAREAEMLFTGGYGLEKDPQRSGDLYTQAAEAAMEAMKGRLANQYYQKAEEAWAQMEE

[34] = molecular target: MAP2K2 (human) (UniProt P36507)
[35] = system: PAK2 (human), Q13177 [T402E]
[36] = molecular target: MAP3K9 (human) (UniProt P80192)

With `O=C(NOCC(O)CO)c1ccc(F)c(F)c1Nc1ccc(I)cc1Cl` (centres undefined) the residual activity ([1]; compound 1.0 µM) was 104%, the residual activity ([1]; compound 10.0 µM) was 102% and the residual activity ([2]; compound 1.0 µM) was 94%. It also gave a residual activity ([2]; compound 10.0 µM) of 65%, a residual activity ([3]; compound 1.0 µM) of 111% and a residual activity ([3]; compound 10.0 µM) of 98%. The residual activity ([4]; compound 1.0 µM) was 36%, the residual activity ([4]; compound 10.0 µM) was 3% and the residual activity ([5]; compound 1.0 µM) was 79%. The residual activity ([5]; compound 10.0 µM) was 91%, the residual activity ([6]; compound 1.0 µM) was 89% and the residual activity ([6]; compound 10.0 µM) was 90%. It also gave a residual activity ([7]; compound 1.0 µM) of 98%, a residual activity ([7]; compound 10.0 µM) of 96% and a residual activity ([8]; compound 1.0 µM) of 101%. For the same compound, the residual activity ([8]; compound 10.0 µM) was 103%, the residual activity ([9]; compound 1.0 µM) was 88% and the residual activity ([9]; compound 10.0 µM) was 92%. The residual activity ([10]; compound 1.0 µM) was 97%, the residual activity ([10]; compound 10.0 µM) was 100% and the residual activity ([11]; compound 1.0 µM) was 97%. The residual activity ([11]; compound 10.0 µM) was 98%, the residual activity ([12]; compound 1.0 µM) was 73% and the residual activity ([12]; compound 10.0 µM) was 88%. The residual activity ([13]; compound 1.0 µM) was 71%, the residual activity ([13]; compound 10.0 µM) was 75% and the residual activity ([14]; compound 1.0 µM) was 119%. The residual activity ([14]; compound 10.0 µM) was 108%, the residual activity ([15]; compound 1.0 µM) was 111% and the residual activity ([15]; compound 10.0 µM) was 99%. For the same compound, the residual activity ([16]; compound 1.0 µM) was 116%, the residual activity ([16]; compound 10.0 µM) was 119% and the residual activity ([17]; compound 1.0 µM) was 98%. It also gave a residual activity ([17]; compound 10.0 µM) of 86%, a residual activity ([18]; compound 1.0 µM) of 91% and a residual activity ([18]; compound 10.0 µM) of 93%. The residual activity ([19]; compound 1.0 µM) was 70%, the residual activity ([19]; compound 10.0 µM) was 79% and the residual activity ([20]; compound 1.0 µM) was 102%. The residual activity ([20]; compound 10.0 µM) was 97%, the residual activity [21] was 84% and the residual activity [22] was 103%. It also gave a residual activity ([23]; compound 1.0 µM) of 107%, a residual activity ([23]; compound 10.0 µM) of 92% and a residual activity ([24]; compound 1.0 µM) of 76%. The residual activity ([24]; compound 10.0 µM) was 79%, the residual activity ([25]; compound 1.0 µM) was 105% and the residual activity ([25]; compound 10.0 µM) was 98%. It also gave a residual activity ([26]; compound 1.0 µM) of 94%, a residual activity ([26]; compound 10.0 µM) of 80% and a residual activity ([27]; compound 1.0 µM) of 78%. The residual activity ([27]; compound 10.0 µM) was 89%, the residual activity [28] was 86% and the residual activity ([29]; compound 1.0 µM) was 102%. It also gave a residual activity ([29]; compound 10.0 µM) of 71%, a residual activity ([30]; compound 1.0 µM) of 95% and a residual activity ([30]; compound 10.0 µM) of 86%. It also gave a residual activity ([31]; compound 1.0 µM) of 102%, a residual activity ([31]; compound 10.0 µM) of 112% and a residual activity ([32]; compound 1.0 µM) of 95%. It also gave a residual activity ([32]; compound 10.0 µM) of 97%, a residual activity ([33]; compound 1.0 µM) of 84% and a residual activity ([33]; compound 10.0 µM) of 92%. It also gave a residual activity ([34]; compound 1.0 µM) of 55%, a residual activity ([34]; compound 10.0 µM) of 23% and a residual activity ([35]; compound 1.0 µM) of 95%. For the same compound, the residual activity ([35]; compound 10.0 µM) was 80%, the residual activity ([36]; compound 1.0 µM) was 84% and the residual activity ([36]; compound 10.0 µM) was 85%.
